Data as given in patent US12642838B2, “Method of modulating sensitivity to tyrosine kinase inhibitor” (SINGAPORE HEALTH SERVICES PTE LTD, priority 2020, dated 2026).

Legend:
NCC-HN1 cells = assay: Cell proliferation assay (CellTitre-Glo), TKI and EV co-treatment, NCC-HN1; assay type: cell-based, human
Experimental: Extracellular vesicle (EV) collection and isolation were carried out as previously described*. Briefly, cells were grown in T-175 tissue culture flasks with conditioning medium (NCM). After 72 hours incubation, the NCM was collected and spun down at 1,200 rpm for 10 minutes to remove cell debris. The supernatant was then filtered through a 0.22 um filter (PES) and the filtrate was loaded into Amicon® Ultra-15 Centrifugal Filter Unit (Merck Millipore, Kenilworth, NJ). The medium was concentrated and subjected to a final wash with 1×PBS before reconstituting to 1/60 of the original volume. To reduce extracellular vesicle batch variation, every five extracellular vesicle batches were pooled into a single batch for analysis and treatment. *Reference: Rodrigues-Junior, D. M. et al. Circulating extracellular vesicle-associated TGFβ3 modulates response to cytotoxic therapy in head and neck squamous cell carcinoma. Carcinogenesis 1-13 (2019). doi:10.1093/carcin/bgz148
Cells were seeded in 100 μl complete growth medium at a density of 1,000-3,000 cells/well in 96-well tissue culture plates. Cells were washed with 1×PBS to remove remaining medium residue prior treatment. […] Plates were incubated for 72 hours at 37° C. after which cell viability was assessed using CellTitre-Glo® Luminescent Assay according to the manufacturer's protocol (Promega, Madison, WI).

[1] = Mouse body weight after afatinib and EV co-treatment; assay type: in vivo; settings: daily oral afatinib with 72-hourly peri-tumoural EV injection
Source text: Arrow indicates commencement of daily oral afatinib administration with 72-hourly peri-tumoural extracellular vesicle (EV) injection. This confirms that the therapy delivered to the mice in FIG. 25 had minimal side effects/toxicity during the course of the experiment.

[2] = test system: NCC-HN1, NCC-HN120M and NCC-HN182M cells; assay: Cell proliferation assay and IC50 determination, TKI and EV co-treatment, HNSCC cell line panel; assay type: cell-based, human
Experimental: To test the response of head and neck squamous cell carcinomas (HNSCC) cell lines to tyrosine kinase inhibitors (TKIs) in the presence of EGFR exosomal isoform D, three primary cell lines, namely NCC-HN1, NCC-HN120M and NCC-HN182M, were used. […] NCC-HN1, NCC-HN120M and NCC-HN182M cells were treated with eight tyrosine kinase inhibitors, each individually, in the presence of exosome (EV) derived from NCC-HN19 and NCC-HN137P cells.
Cells were seeded in 100 μl complete growth medium at a density of 1,000-3,000 cells/well in 96-well tissue culture plates. […] Plates were incubated for 72 hours at 37° C. after which cell viability was assessed using CellTitre-Glo® Luminescent Assay according to the manufacturer's protocol (Promega, Madison, WI).

For `O=C1NC(=NS(=O)(=O)c2cccc3ccccc23)S/C1=C\c1ccc(Br)cc1` [PitStop2], the “effect on the sensitising effect of isoform D containing EVs” value (NCC-HN1 cells; 1 μM PS2 with 293T pBob-IsoD EV) was “reduces the sensitising effect of isoform D containing EVs”.

For `CN(C)C/C=C/C(=O)Nc1cc2c(Nc3ccc(F)c(Cl)c3)ncnc2cc1O[C@H]1CCOC1` [afatinib], the mouse body weight [1] was “no changes in mouse body weight”.

With `COc1cc2ncnc(Nc3ccc(F)c(Cl)c3)c2cc1NC(=O)/C=C/CN1CCCCC1` [dacomitinib] the “sensitivity of HNSCC cells to the TKI on co-treatment with exosomes containing overexpressed EGFR isoform D” value ([2]; EV from 293T, FIG. 11H (NCC-HN1 and NCC-HN120M)) was “sensitized” and the “sensitivity of TKI-resistant cells to the TKI on application of EVs from sensitive cells” value ([2]; EV from HN19 and HN137P applied to HN1, HN120M, HN182M) was “sensitises these resistant cells”.

For `COc1cc2ncnc(Nc3ccc(F)c(Cl)c3)c2cc1OCCCN1CCOCC1` [gefitinib], the “response of cells to TKI without exosome” value (NCC-HN1 cells; no exosome treatment) was “normally resistant”.
